Test results as given in ChEMBL document CHEMBL1201862, “PubChem BioAssay data set” (2004).
Calls of active or inactive are those of the source.

Key:
[1] = biological target: FAD-linked sulfhydryl oxidase ALR (Homo sapiens, UniProt P55789); assay: inhibitors of human ALR sulfhydryl oxidase, dose response, biochemical, H2O2 detection, luminescence, cherry-pick (AID 493248)
Protein RecA = biological target: T1, Protein RecA (Mycobacterium tuberculosis, UniProt P9WHJ3); assay: Fluorescence Cell-Free Homogeneous Dose Retest to Identify Inhibitors of RecA-Intein Splicing Activity. [Related pubchem assays (depositor defined):AID2097, AID2223, AID489010, AID492950]; assay type: functional
T1 sequence (P9WHJ3 whole entry): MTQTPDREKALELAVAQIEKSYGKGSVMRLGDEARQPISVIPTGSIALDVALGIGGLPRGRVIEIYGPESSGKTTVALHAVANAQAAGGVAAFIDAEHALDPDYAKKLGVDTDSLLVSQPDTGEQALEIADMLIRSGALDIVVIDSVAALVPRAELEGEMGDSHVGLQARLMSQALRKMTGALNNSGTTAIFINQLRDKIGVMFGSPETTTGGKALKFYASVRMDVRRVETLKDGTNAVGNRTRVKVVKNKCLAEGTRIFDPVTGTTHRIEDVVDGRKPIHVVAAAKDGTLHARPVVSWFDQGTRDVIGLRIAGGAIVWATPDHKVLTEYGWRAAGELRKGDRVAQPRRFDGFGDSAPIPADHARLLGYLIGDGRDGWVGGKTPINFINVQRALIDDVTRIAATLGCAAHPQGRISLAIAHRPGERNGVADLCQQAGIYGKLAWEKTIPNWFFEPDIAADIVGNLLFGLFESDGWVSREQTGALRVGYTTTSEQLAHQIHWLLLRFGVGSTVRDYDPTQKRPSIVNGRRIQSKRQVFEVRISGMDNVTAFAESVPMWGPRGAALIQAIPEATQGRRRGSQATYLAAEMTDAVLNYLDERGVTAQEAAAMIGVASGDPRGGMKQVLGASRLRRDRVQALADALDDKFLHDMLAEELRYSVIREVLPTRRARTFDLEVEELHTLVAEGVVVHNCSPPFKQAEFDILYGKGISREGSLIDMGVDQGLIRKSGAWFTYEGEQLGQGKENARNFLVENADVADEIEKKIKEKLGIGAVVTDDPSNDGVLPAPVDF

[2] = biological target: T2, Replicative DNA helicase DnaB (Mycobacterium tuberculosis, UniProt P9WMR3); assay: DnaB intein splicing inhibitors, dose response, biochemical, cell-free fluorescence (AID 449749); assay type: functional
T2 sequence (P9WMR3 whole entry): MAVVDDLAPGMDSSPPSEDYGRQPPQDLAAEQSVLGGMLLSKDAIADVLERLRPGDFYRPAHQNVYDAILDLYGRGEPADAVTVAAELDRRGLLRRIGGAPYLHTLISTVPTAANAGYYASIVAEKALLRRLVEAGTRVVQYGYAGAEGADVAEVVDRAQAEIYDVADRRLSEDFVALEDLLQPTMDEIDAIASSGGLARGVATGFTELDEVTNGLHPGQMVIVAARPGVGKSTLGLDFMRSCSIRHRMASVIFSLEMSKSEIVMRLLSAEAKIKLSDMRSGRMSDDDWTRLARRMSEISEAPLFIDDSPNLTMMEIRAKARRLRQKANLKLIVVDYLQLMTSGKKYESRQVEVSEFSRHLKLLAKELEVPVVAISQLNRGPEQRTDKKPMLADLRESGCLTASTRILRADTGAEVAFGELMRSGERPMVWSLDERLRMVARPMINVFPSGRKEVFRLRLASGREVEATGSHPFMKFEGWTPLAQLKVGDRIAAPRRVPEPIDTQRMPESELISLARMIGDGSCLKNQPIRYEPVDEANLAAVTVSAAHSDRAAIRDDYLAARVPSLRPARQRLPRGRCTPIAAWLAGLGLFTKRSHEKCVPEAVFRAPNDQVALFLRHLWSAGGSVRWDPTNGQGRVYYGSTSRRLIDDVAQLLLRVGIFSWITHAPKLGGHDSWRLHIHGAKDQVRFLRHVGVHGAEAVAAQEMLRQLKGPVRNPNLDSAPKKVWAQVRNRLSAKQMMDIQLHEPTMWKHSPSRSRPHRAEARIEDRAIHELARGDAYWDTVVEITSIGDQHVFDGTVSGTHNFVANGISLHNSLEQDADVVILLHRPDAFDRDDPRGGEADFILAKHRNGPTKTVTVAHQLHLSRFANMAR

Vero = assay: cells; assay type: functional; settings: Chlorocebus sabaeus
H9c2 = assay: cells; assay type: functional, cell-based; settings: Rattus norvegicus, H9c2, Myocardium;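 note: confirmatory concentration-response retest of ultra-high-throughput screening hits for modulation of myocardial damage; cell death induced by hydrogen peroxide oxidative stress; compound pretreatment for 60 min then peroxide exposure for 2 h; potency is for protecting the cells against peroxide damage rather than for killing them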
[3] = growth suppression of beta-catenin-knockout colon cells, dose response, cell-based, HCT116, human colon tumor (AID 1045); assay type: functional;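 note: HCT116 colon tumor cells with beta catenin knocked out; cells exposed to compound for 60 hours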
[4] = growth suppression of PTEN-null colon cells, dose response, cell-based, HCT116 PTEN knockout (AID 1047); assay type: functional;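 note: HCT116 colon tumor cells with PTEN knocked out; cells exposed to compound for 60 hours before readout; potency for loss of cell viability measured by luminescence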
[5] = biological target: T3, Calpain-2 catalytic subunit (Sus scrofa, UniProt P43367); assay: pig calpain II inhibitor potency, dose response, biochemical, fluorogenic peptide substrate (AID 1420); assay type: functional
T3 sequence (P43367 whole entry): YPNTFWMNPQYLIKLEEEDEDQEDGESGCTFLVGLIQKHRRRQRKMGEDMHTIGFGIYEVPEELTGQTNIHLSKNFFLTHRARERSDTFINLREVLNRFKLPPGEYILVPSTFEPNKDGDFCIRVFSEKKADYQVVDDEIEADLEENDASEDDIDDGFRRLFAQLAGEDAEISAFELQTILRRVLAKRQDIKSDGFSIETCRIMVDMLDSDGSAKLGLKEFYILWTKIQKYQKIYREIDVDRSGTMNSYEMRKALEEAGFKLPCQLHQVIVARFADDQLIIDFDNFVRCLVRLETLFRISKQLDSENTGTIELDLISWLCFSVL

[6] = biological target: Induced myeloid leukemia cell differentiation protein Mcl-1 (Homo sapiens, UniProt Q07820); assay type: functional
Sequence of Induced myeloid leukemia cell differentiation protein Mcl-1 (Q07820 whole entry): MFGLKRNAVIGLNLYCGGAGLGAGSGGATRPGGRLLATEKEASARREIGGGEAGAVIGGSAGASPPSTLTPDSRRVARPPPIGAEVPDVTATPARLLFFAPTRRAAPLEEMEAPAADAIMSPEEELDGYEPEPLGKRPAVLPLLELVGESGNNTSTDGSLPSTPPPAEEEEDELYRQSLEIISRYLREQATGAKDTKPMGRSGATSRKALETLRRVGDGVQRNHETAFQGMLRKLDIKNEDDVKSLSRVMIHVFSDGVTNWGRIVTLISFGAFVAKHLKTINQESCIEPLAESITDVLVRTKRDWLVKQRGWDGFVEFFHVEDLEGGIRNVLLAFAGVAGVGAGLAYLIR

Large T antigen = Large T antigen (Simian virus 40, UniProt P03070); assay type: functional, Betapolyomavirus macacae;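 note: Confirmatory-stage PubChem screen for compounds that inhibit SV40 T antigen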
Sequence of Large T antigen (P03070 whole entry): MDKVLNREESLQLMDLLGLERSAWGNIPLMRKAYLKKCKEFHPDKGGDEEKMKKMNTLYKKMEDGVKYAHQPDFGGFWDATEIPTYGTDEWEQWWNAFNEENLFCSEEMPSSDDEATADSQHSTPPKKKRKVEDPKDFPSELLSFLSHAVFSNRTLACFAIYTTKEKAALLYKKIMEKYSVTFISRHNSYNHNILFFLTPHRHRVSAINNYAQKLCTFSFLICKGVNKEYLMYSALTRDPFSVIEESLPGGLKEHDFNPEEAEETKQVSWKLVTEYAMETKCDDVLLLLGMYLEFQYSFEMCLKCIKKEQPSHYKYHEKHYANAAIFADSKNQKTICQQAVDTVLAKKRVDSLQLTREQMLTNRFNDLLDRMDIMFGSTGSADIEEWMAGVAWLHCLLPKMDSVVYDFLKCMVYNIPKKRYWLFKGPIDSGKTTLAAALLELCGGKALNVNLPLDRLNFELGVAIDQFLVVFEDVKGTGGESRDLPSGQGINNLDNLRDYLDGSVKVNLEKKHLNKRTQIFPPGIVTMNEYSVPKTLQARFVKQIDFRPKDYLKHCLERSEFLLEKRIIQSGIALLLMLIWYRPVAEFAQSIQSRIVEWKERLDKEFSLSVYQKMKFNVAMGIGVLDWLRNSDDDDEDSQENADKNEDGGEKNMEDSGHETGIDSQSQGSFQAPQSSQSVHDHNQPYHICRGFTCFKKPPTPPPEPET

[7] = HEp-2 cell cytotoxicity, dose response, cytotoxicity control for RSV inhibitor project, HTS (AID 2410); assay type: functional; settings: human respiratory syncytial virus
[8] = biological target: T4, Microphthalmia-associated transcription factor (Homo sapiens, UniProt O75030); assay: TRPM1 promoter luciferase signal decrease, dose response, MITF inhibitor project, cell-based, SK-MEL-5, cherry-picked, set 3 (AID 493073); assay type: functional
T4 sequence (O75030 whole entry): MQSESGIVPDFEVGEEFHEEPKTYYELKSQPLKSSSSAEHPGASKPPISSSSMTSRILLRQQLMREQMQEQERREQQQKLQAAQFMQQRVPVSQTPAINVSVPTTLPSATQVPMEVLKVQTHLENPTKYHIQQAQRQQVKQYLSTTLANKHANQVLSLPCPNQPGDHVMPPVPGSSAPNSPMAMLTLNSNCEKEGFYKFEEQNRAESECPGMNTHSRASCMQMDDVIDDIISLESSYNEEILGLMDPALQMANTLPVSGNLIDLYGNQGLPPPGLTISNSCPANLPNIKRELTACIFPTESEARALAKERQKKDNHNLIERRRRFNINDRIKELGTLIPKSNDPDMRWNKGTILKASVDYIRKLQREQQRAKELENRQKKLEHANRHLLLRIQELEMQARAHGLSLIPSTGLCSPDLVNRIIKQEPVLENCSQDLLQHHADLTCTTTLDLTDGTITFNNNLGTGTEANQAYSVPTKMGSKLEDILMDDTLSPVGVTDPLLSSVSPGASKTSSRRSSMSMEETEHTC

[9] = C. albicans growth with fluconazole, confirmation, fluorescence, retest (AID 2467); assay type: functional, cell-based
[10] = NIH-3T3 fibroblast cytotoxicity, dose response, cytotoxicity control, cell-based, fluorescence, Alamar Blue, secondary assay (AID 2327); assay type: functional;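 note: NIH-3T3 mouse fibroblasts cultured with fluconazole at 8 µg/mL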
Paired box protein Pax-8 = Paired box protein Pax-8 (Homo sapiens, UniProt Q06710); assay: inhibitors of PAX8-driven TPO luciferase reporter, dose response, RMG-I cells, cherry-pick (AID 687027); assay type: functional, cell-based;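 note: luciferase reporter driven by Pax8 target thyroperoxidase promoter measured by SteadyGlo luminescence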
Sequence of Paired box protein Pax-8 (Q06710 whole entry, the tested form may be a part): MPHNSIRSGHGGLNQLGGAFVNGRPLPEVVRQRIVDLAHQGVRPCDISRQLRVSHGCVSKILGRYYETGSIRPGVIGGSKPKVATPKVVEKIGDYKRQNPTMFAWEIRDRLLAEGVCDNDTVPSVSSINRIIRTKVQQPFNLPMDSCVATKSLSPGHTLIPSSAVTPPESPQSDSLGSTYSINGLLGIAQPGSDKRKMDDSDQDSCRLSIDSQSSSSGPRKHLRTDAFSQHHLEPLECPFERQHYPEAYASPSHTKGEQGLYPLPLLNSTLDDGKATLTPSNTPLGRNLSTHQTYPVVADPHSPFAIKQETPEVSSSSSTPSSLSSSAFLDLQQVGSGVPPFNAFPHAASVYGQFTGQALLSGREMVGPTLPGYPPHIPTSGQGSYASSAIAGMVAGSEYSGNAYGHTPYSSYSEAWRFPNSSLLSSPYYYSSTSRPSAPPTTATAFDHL

[11] = inhibitors of HIV Env-driven cell fusion, dose response, cherry-pick (AID 652057); assay type: functional, cell-based
[12] = off-target signal loss in HeLa-CEM21 co-culture – HeLa F-luc CTL cells, cherry-picked, counter-screen for HIV-1 Env fusion inhibitor project, dose response (AID 652040); assay type: functional, cell-based;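 note: potency for signal decrease marking cytotoxic or nonspecific inhibition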

Sequence of FAD-linked sulfhydryl oxidase ALR (P55789 whole entry): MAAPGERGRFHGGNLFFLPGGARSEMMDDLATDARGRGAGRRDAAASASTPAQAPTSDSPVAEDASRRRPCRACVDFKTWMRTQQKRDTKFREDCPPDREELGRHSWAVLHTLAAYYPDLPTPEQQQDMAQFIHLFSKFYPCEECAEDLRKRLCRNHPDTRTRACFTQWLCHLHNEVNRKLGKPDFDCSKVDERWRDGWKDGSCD

COc1ccc(C(=O)NNS(=O)(=O)c2ccc(OC)cc2)cc1
AC50 [1]: 12.7 µM (active)

O=C(NCc1ccco1)/C(=C/c1cccc(C(F)(F)F)c1)c1nc2ccccc2[nH]1
EC50 (Protein RecA): 54.4 µM (active)
AC50 [2]: > 380 µM (inactive)
CC50 (Vero): 13.7 µM (active)

COc1ccnc(Oc2ccc(F)cc2)c1C(=O)N=CNOCc1ccc(Cl)cc1Cl
IC50 (H9c2): > 79 µM (inactive)

COc1ccc2nc(SCC(=O)Nc3ccc4sc(C)nc4c3)c(C#N)cc2c1
EC50 [3]: 20 µM (active)
EC50 [4]: 21.3 µM (active)

Cc1ccc2nc(N(CCCN(C)C)C(=O)CCc3ccccc3)sc2c1
EC50 [3]: 16.6 µM (active)
EC50 [4]: 16.6 µM (active)

O=C(NCC1(c2ccccc2)CCCC1)C1(c2ccccc2)CCCC1
EC50 (Protein RecA): 53.3 µM (active)
AC50 [2]: 10 µM (active)

CC(C)CC(=O)NC(=S)NNC(=O)c1ccc([N+](=O)[O-])cc1
CC50 (Vero): 24.6 µM (active)

O=C(Cn1[nH]c(=O)c2ccccc2c1=O)NC1CCCCCC1
IC50 (H9c2): 25.3 µM (active)

Cc1ccc(NC(=O)CN2C(=O)/C(=C3\SC(=S)N(C4CCS(=O)(=O)C4)C3=O)c3ccccc32)cc1 (stereo unspecified)
IC50 [5]: 9.72 µM (not active)
IC50 [6]: 24.1 µM (active)

Cc1ccc(OCCN2CCN(CC(O)Cn3c4ccccc4c4ccccc43)CC2)cc1 (stereo unspecified)
EC50 [3]: 10.9 µM (active)
EC50 [4]: 13.6 µM (active)

CCN(C(=O)c1ccc2c(Cl)c3c(nc2c1)CCC3)c1ccc(C)c(C)c1
EC50 (Protein RecA): 2.59 µM (active)
AC50 [2]: 14.1 µM (active)

Cc1ccc(CNC(=O)c2oc3ccc(S(=O)(=O)N4CCOCC4)cc3c2C)cc1
IC50 [5]: 23.5 µM (not active)
IC50 (H9c2): > 79 µM (inactive)

O=C(CCl)N1CCN(S(=O)(=O)c2ccc3ccccc3c2)CC1
EC50 (Protein RecA): 1.58 µM (active)
AC50 [2]: 12.7 µM (active)

CSc1nc(Cl)cc(Nc2ccc(O)cc2)n1
IC50 (Large T antigen): 17.8 µM (active)

N=c1sccn1CC(=O)Nc1ccc(SC(F)F)cc1
AC50 [1]: 1.68 µM (active)

CCN(CC(=O)Nc1c(C(=O)OC)[nH]c2ccc(Cl)cc12)c1ccc2c(c1)OCO2
EC50 [3]: 27.7 µM (active)
EC50 [4]: 19.4 µM (active)

CCOc1ccc(-n2c(SCC(=O)Nc3cc(C)on3)nc3c4ccccc4nc-3c2O)cc1
EC50 [3]: 28.6 µM (active)
EC50 [4]: 28.4 µM (active)

Oc1nnc(CNc2ccc(C(F)(F)F)cc2)c2ccccc12
IC50 (H9c2): 27.5 µM (active)

CCOC(=O)c1cn(-c2nc(-c3ccc(Cl)c(Cl)c3)cs2)c2c(F)c(N3CCOCC3)c(F)cc2c1=O
EC50 [3]: 18.6 µM (active)
CC50 [7]: 28.4 µM (active)
EC50 [4]: 8.96 µM (active)

CC[C@@H](C)[C@H](NC(=O)Cc1c(C)c2cc3c(C)coc3c(C)c2oc1=O)C(=O)O
AC50 [1]: 2.39 µM (active)

COC(=O)Nc1ccc(S(=O)(=O)Nc2ccc(O)cc2)cc1
AC50 [1]: 1.38 µM (active)

Cn1c(/C=C/c2cccc([N+](=O)[O-])c2)c([N+](=O)[O-])c(=O)n(C)c1=O
AC50 [8]: 27.8 µM (active)
CC50 [7]: 36 µM (active)
EC50 [9]: 7.56 µM (active)
EC50 [10]: 58.4 µM (active)
CC50 (Vero): 22.7 µM (active)

COc1ccc(NC(=O)C(Sc2nnc(-c3ccncc3)n2-c2ccccc2C)c2ccccc2)cc1Cl (stereo unspecified)
AC50 (Paired box protein Pax-8): 15.5 µM (active)

CC(OC(=O)Cc1nnc(O)c2ccccc12)C(=O)Nc1cc(Cl)cc(Cl)c1 (stereo unspecified)
IC50 (H9c2): 20.8 µM (active)

CC(NC(=O)c1ccccc1NC(=O)CN1CCc2ccccc2C1)c1ccccc1 (stereo unspecified)
AC50 [11]: 9.12 µM (active)
AC50 [12]: 49.2 µM (active)

CC(NC(=O)C1CC1)C(c1cccs1)N1CCN(c2ccccc2)CC1 (stereo unspecified)
AC50 [1]: 0.362 µM (active)

CC1CCCCC12NC(=O)N(CC(=O)Nc1ccc(S(=O)(=O)Nc3ncccn3)cc1)C2=O (stereo unspecified)
AC50 [1]: 6.47 µM (active)

COc1cc(C(=O)NNC(=O)c2ccc3ccccc3n2)cc(OC)c1OC
IC50 (H9c2): 8.15 µM (active)

O=C(NCCc1ccc(F)cc1)C(=O)Nc1cc2c3c(c1)CC(=O)N3CCC2
IC50 (H9c2): > 79 µM (inactive)

COCCn1/c(=N/C(=O)c2sc3ccccc3c2Cl)sc2cc(S(N)(=O)=O)ccc21
EC50 [3]: 22.5 µM (active)
EC50 [4]: 23.2 µM (active)

CC(=O)Nc1ccc(C(=O)N/N=C/c2ccccc2OC(=O)c2ccc(Cl)cc2)cc1
IC50 (H9c2): 8.26 µM (active)

CCOc1cc(/C=N\NC(=O)c2ccc(NC(=O)C(C)(C)C)cc2)ccc1OC(=O)c1cccc(C)c1
IC50 (H9c2): > 79 µM (inactive)

COc1ccc(NC(=O)Nc2ccc3c(c2)C(=O)N([C@@H](C)CO)C[C@@H](C)[C@@H](CN(C)Cc2ccc(C(F)(F)F)cc2)OCCCC[C@@H](C)O3)cc1
AC50 (Paired box protein Pax-8): 8.18 µM (active)

O=C(C[C@H]1CC[C@H]2[C@@H](COC[C@@H](O)CN2Cc2ccc(Oc3ccccc3)cc2)O1)N1CCCCC1
AC50 (Paired box protein Pax-8): 15 µM (active)

Cc1ccc(-c2nnc(S)n2/N=C/c2c(C)nn(-c3ccccc3)c2O)cc1
AC50 [1]: 13.5 µM (active)

Cc1c(O)cccc1C(=O)N[C@@H](CSc1ccccc1)[C@H](O)CN1C[C@H]2CCCC[C@H]2C[C@H]1C(=O)NC(C)(C)C
CC50 (Vero): > 25 µM (active)
